Results published in the Kinase Knowledgebase extract (Sharma et al. 2016).

How the values were obtained:
[1] = test system: EGFR (Human), P00533 [Assessment of Proliferation in EGFR DelE746_A750 Mutant Expressing HCC827 Cells]
[2] = test system: EGFR (Human), P00533 [T790M/L858R]; settings: nci-h1975
Sequence of EGFR (Human), P00533 [T790M/L858R] (P00533 whole entry T790M/L858R, looked up): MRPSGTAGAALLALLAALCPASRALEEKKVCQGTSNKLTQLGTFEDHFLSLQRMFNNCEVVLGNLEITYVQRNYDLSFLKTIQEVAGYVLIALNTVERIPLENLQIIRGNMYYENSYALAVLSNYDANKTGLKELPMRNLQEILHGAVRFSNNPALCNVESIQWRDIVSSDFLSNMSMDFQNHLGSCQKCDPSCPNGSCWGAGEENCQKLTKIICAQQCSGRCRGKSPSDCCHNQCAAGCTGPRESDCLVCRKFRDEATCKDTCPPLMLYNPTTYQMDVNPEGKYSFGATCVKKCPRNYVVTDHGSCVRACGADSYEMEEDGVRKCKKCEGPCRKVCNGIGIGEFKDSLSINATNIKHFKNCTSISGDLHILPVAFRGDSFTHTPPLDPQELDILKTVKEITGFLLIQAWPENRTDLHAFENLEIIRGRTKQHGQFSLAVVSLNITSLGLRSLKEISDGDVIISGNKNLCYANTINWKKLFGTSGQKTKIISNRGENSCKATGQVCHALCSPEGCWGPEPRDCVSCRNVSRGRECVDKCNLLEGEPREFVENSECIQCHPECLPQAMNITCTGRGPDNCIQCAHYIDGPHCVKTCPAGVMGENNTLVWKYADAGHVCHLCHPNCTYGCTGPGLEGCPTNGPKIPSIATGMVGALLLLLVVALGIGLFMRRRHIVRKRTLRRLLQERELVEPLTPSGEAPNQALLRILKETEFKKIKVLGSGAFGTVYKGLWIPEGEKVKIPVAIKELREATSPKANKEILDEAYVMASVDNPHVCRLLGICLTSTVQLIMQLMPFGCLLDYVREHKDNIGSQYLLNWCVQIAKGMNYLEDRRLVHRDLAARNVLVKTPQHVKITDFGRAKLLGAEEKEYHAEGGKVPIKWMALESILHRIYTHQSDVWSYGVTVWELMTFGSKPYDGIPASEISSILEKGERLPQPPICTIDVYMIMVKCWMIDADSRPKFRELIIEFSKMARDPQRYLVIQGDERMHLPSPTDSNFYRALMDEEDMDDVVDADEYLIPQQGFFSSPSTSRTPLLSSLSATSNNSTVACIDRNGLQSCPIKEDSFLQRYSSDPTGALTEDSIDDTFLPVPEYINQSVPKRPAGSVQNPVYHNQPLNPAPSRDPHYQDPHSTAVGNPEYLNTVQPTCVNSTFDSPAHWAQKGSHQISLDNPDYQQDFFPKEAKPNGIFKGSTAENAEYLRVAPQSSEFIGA

Sequence of EGFR (Human), P00533 [Assessment of Proliferation in EGFR DelE746_A750 Mutant Expressing HCC827 Cells] (P00533 whole entry, looked up, stated change not applied): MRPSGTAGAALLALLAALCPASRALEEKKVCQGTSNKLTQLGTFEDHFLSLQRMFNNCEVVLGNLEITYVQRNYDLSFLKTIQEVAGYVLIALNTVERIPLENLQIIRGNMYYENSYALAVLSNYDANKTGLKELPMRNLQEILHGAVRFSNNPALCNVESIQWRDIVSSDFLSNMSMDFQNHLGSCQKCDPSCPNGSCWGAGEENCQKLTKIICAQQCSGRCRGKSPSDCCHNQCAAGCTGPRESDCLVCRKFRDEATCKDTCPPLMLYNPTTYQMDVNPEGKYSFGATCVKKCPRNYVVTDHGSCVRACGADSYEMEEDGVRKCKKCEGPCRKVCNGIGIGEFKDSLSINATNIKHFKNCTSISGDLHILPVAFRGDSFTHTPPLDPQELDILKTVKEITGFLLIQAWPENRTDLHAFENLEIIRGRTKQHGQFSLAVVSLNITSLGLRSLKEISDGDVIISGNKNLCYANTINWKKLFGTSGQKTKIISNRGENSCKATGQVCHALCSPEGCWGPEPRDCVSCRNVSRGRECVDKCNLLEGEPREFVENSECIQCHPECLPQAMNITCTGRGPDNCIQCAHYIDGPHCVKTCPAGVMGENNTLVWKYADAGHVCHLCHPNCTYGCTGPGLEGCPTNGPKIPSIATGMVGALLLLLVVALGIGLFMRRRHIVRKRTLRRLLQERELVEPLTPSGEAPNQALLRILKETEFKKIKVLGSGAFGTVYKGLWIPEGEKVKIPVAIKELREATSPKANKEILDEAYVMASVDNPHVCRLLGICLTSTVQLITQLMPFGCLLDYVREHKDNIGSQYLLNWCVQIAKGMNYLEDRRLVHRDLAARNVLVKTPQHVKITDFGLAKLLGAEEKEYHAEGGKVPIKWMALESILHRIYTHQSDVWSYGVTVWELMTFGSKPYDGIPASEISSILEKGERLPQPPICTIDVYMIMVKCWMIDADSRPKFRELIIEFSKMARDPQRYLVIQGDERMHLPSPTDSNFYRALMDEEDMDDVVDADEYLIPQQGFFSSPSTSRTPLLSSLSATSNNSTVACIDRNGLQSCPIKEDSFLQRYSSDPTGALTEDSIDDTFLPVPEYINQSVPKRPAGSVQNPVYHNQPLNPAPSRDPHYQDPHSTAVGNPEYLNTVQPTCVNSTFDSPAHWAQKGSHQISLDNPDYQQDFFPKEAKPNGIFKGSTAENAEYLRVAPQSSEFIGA

GI50 [1] [nM]	Structure (SMILES)	GI50 [2] [nM]
≤ 50	C=CC(=O)Nc1cccc(Oc2nc(Nc3ccc(OC4CCN(CC)CC4)cc3)nc3ccsc23)c1	≤ 50
50 to 100	C=CC(=O)Nc1cccc(Oc2nc(Nc3ccc(C4CCN(C)CC4)cc3OC)nc3ccsc23)c1	≤ 50
≤ 50	C=CC(=O)Nc1cccc(Oc2nc(Nc3ccc(C4=CCN(C)CC4)cc3)nc3ccsc23)c1	≤ 50
100 to 1000	C=CC(=O)Nc1cccc(Oc2nc(Nc3ccc(O)cc3)nc3ccsc23)c1	100 to 1000
50 to 100	C=CC(=O)Nc1cccc(Oc2nc(Nc3ccc(N4CCN(S(=O)(=O)N(C)C)CC4)cc3)nc3ccsc23)c1	50 to 100
≤ 50	C=CC(=O)Nc1cccc(Oc2nc(Nc3ccc(OCCN4CCN(C)CC4)c(F)c3)nc3ccsc23)c1	≤ 50
≤ 50	C=CC(=O)Nc1cccc(Oc2nc(Nc3ccc(N4CCN(C(C)(C)C)CC4)cc3)nc3ccsc23)c1	≤ 50
≤ 50	C=CC(=O)Nc1cccc(Oc2nc(Nc3ccc(N4CCN(S(C)(=O)=O)CC4)c(F)c3)nc3ccsc23)c1	≤ 50
≤ 50	C=CC(=O)Nc1cccc(Oc2nc(Nc3ccc(NCCN(C)C)c(F)c3)nc3ccsc23)c1	≤ 50
≤ 50	C=CC(=O)Nc1cccc(Oc2nc(Nc3ccc4c(c3)NCCCO4)nc3ccsc23)c1	≤ 50
50 to 100	C=CC(=O)Nc1cccc(Oc2nc(Nc3ccc(S(=O)(=O)NC4CC4)cc3)nc3ccsc23)c1	≤ 50
≤ 50	C=CC(=O)Nc1cccc(Oc2nc(Nc3ccc(CN4CCC(N(C)C)CC4)cc3)nc3ccsc23)c1	≤ 50
50 to 100	C=CC(=O)Nc1cccc(Oc2nc(Nc3ccc(N4CC(C)OC(C)C4)c(F)c3)nc3ccsc23)c1 (stereo unspecified)	50 to 100
≤ 50	C=CC(=O)Nc1cccc(Oc2nc(Nc3ccc(OCCN4CCOCC4)cc3)nc3ccsc23)c1	≤ 50
≤ 50	C=CC(=O)Nc1cccc(Oc2nc(Nc3ccc(C4(N)CC4)cc3)nc3ccsc23)c1	≤ 50
≤ 50	C=CC(=O)Nc1cccc(Nc2nc(Nc3ccc(N4CCN(C)CC4)c(F)c3)nc3ccsc23)c1	≤ 50
≤ 50	C=CC(=O)Nc1cccc(Oc2nc(Nc3ccc(N4CCOCC4)c(F)c3)nc3ccsc23)c1	≤ 50
50 to 100	C=CC(=O)Nc1cccc(Oc2nc(Nc3ccc(CCS(C)(=O)=O)cc3)nc3ccsc23)c1	≤ 50
≤ 50	C=CC(=O)Nc1ccc(F)c(Nc2nc(Nc3ccc(N4CCN(C)CC4)cc3)nc3ccsc23)c1	50 to 100
50 to 100	C=CC(=O)Nc1cccc(Oc2nc(Nc3ccc(NC(=O)N4CCN(C)CC4)cc3)nc3ccsc23)c1	≤ 50
≤ 50	C=CC(=O)Nc1cccc(Oc2nc(Nc3ccc(CCN4CCCCC4)cc3)nc3ccsc23)c1	≤ 50
50 to 100	C=CC(=O)Nc1cccc(Oc2nc(Nc3ccc(N4CCN(C)CC4)cc3OC)nc3ccsc23)c1	50 to 100
≤ 50	C=CC(=O)Nc1cccc(Oc2nc(Nc3ccc(N4CCN(CC)CC4)cc3OC)nc3ccsc23)c1	≤ 50
≤ 50	C=CC(=O)Nc1cccc(Oc2nc(Nc3ccc(N4CCC(CN5CCCCC5)CC4)cc3)nc3ccsc23)c1	≤ 50
≤ 50	C=CC(=O)Nc1cccc(Nc2nc(Nc3ccc(CN(C)C)cc3)nc3ccsc23)c1	≤ 50

GI50 [1] [nM]	Structure (SMILES)	GI50 [2] [nM]
50 to 100	C=CC(=O)Nc1cccc(Oc2nc(Nc3ccc(N4CCN(C)CC4)cc3F)nc3ccsc23)c1	50 to 100
≤ 50	C=CC(=O)Nc1cccc(Oc2nc(Nc3ccc(N4CCN(C5CCN(C)CC5)CC4)cc3)nc3ccsc23)c1	≤ 50
50 to 100	C=CC(=O)Nc1cccc(Oc2nc(Nc3ccc(CCN4CCN(CC)CC4)cc3)nc3ccsc23)c1	≤ 50
≤ 50	C=CC(=O)Nc1cccc(Oc2nc(Nc3ccc(C(=O)NC4CCN(C)CC4)c(Cl)c3)nc3ccsc23)c1	≤ 50
≤ 50	C=CC(=O)Nc1cccc(Sc2nc(Nc3ccc(N4CCOCC4)c(F)c3)nc3ccsc23)c1	≤ 50
50 to 100	C=CC(=O)Nc1cccc(Oc2nc(Nc3ccc(C(=O)NC)cc3)nc3ccsc23)c1	50 to 100
≤ 50	C=CC(=O)Nc1cccc(Sc2nc(Nc3ccc(C4CCN(C)CC4)c(F)c3)nc3ccsc23)c1	≤ 50
≤ 50	C=CC(=O)Nc1cccc(Oc2nc(Nc3ccc(C(C)=O)cc3)nc3ccsc23)c1	≤ 50
50 to 100	C=CC(=O)Nc1cccc(Oc2nc(Nc3ccc(C4CCN(C)CC4)c(Cl)c3)nc3ccsc23)c1	50 to 100
50 to 100	C=CC(=O)Nc1cccc(Oc2nc(Nc3ccc(CN4CCN(C5CCN(C)CC5)CC4)c(Cl)c3)nc3ccsc23)c1	≤ 50
≤ 50	C=CC(=O)Nc1cccc(Oc2nc(Nc3ccc(OCCN(C)C)cc3)nc3ccsc23)c1	≤ 50
≤ 50	C=CC(=O)Nc1ccc(F)c(Nc2nc(Nc3ccc(N4CCN(C)CC4)c(F)c3)nc3ccsc23)c1	≤ 50
≤ 50	C=CC(=O)Nc1cccc(Nc2nc(Nc3ccc(N4CCN(C(C)C)CC4)cc3)nc3ccsc23)c1	≤ 50
50 to 100	C=CC(=O)Nc1cccc(Oc2nc(Nc3ccc4c(c3)CCCC(=O)N4C)nc3ccsc23)c1	50 to 100
≤ 50	C=CC(=O)Nc1cccc(Oc2nc(Nc3ccc(N4CCC(N5CCCC5)CC4)cc3)nc3ccsc23)c1	≤ 50
≤ 50	C=CC(=O)Nc1cccc(Nc2nc(Nc3ccc(NC4CCN(C)CC4)c(F)c3)nc3ccsc23)c1	50 to 100
≤ 50	C=CC(=O)Nc1cccc(Oc2nc(Nc3ccc(C(=O)NC4CCN(C)CC4)c(OC)c3)nc3ccsc23)c1	50 to 100
50 to 100	C=CC(=O)Nc1cccc(Nc2nc(Nc3ccc(CN4CCCCC4)cc3OC)nc3ccsc23)c1	50 to 100
50 to 100	C=CC(=O)Nc1cccc(Oc2nc(Nc3ccc(N4CCN(S(C)(=O)=O)CC4)cc3)nc3ccsc23)c1	≤ 50
≤ 50	C=CC(=O)Nc1cccc(Oc2nc(Nc3ccc(C4CCCN(C)C4)c(F)c3)nc3ccsc23)c1 (stereo unspecified)	≤ 50
≤ 50	C=CC(=O)Nc1cccc(Oc2nc(Nc3ccc(N4CC(C)N(C)C(C)C4)cc3)nc3ccsc23)c1 (stereo unspecified)	≤ 50
≤ 50	C=CC(=O)Nc1cccc(Oc2nc(Nc3ccc(C(=O)N4CCN(CC)CC4)cc3)nc3ccsc23)c1	≤ 50
50 to 100	C=CC(=O)Nc1cccc(Oc2nc(Nc3ccc(C(=O)N(C)C)cc3)nc3ccsc23)c1	50 to 100
≤ 50	C=CC(=O)Nc1cccc(Oc2nc(Nc3ccc(N4CCN(C)CC4)cc3)nc3ccsc23)c1	≤ 50
≤ 50	C=CC(=O)Nc1cccc(Oc2nc(Nc3ccc(NC4CCN(C(C)C)CC4)c(F)c3)nc3ccsc23)c1	≤ 50

GI50 [1] [nM]	Structure (SMILES)	GI50 [2] [nM]
≤ 50	C=CC(=O)Nc1cccc(Oc2nc(Nc3ccc(NC4CCN(C)CC4)c(F)c3)nc3ccoc23)c1	≤ 50
≤ 50	C=CC(=O)Nc1cccc(Oc2nc(Nc3ccc(N4CCC(N5CCN(CC)CC5)CC4)cc3)nc3ccsc23)c1	100 to 1000
≤ 50	C=CC(=O)Nc1cccc(Oc2nc(Nc3ccc(NC(=O)CCN4CCCC4)cc3)nc3ccsc23)c1	≤ 50
≤ 50	C=CC(=O)Nc1cccc(Oc2nc(Nc3ccc(N4CC[S+]([O-])CC4)cc3)nc3ccsc23)c1	≤ 50
≤ 50	C=CC(=O)Nc1cccc(Oc2nc(Nc3ccc(C(=O)N4CCN(CC)CC4)c(Cl)c3)nc3ccsc23)c1	≤ 50
50 to 100	C=CC(=O)Nc1cccc(Oc2nc(Nc3ccc4c(c3)OCCO4)nc3ccsc23)c1	≤ 50
≤ 50	C=CC(=O)Nc1cccc(Oc2nc(Nc3ccc(C4CCCN(C)C4)cc3OC)nc3ccsc23)c1 (stereo unspecified)	≤ 50
50 to 100	C=CC(=O)Nc1cccc(Nc2nc(Nc3ccc(OCCCN(C)C)cc3)nc3ccsc23)c1	50 to 100
50 to 100	C=CC(=O)Nc1cccc(Oc2nc(Nc3ccc(N4CC5CC4CN5C)cc3)nc3ccsc23)c1 (stereo unspecified)	≤ 50
100 to 1000	C=CC(=O)Nc1cccc(Oc2nc(Nc3ccc(N4CCSCC4)cc3)nc3ccsc23)c1	≤ 50
50 to 100	C=CC(=O)Nc1cccc(Oc2nc(Nc3ccc(N4CC[C@@H](n5ccnc5)C4)cc3)nc3ccsc23)c1	≤ 50
≤ 50	C=CC(=O)Nc1cccc(Oc2nc(Nc3ccc(N4CCC(CO)CC4)cc3)nc3ccsc23)c1	50 to 100
≤ 50	C=CC(=O)Nc1cccc(Oc2nc(Nc3ccc(CS(C)(=O)=O)cc3)nc3ccsc23)c1	≤ 50
≤ 50	C=CC(=O)Nc1cccc(Nc2nc(Nc3ccc(OCCN(C)C)cc3)nc3ccsc23)c1	≤ 50
≤ 50	C=CC(=O)Nc1cccc(Oc2nc(Nc3ccc(CN4CCCC4)cc3)nc3ccsc23)c1	≤ 50
≤ 50	C=CC(=O)Nc1cccc(Oc2nc(Nc3ccc(C4CCN(C(C)C)CC4)cc3)nc3ccsc23)c1	≤ 50
≤ 50	C=CC(=O)Nc1cccc(Oc2nc(Nc3ccc(CN4CCC4)cc3)nc3ccsc23)c1	≤ 50
≤ 50	C=CC(=O)Nc1cccc(Oc2nc(Nc3ccc(N4CCN(C)CC4)cn3)nc3ccsc23)c1	≤ 50
≤ 50	C=CC(=O)Nc1cccc(Oc2nc(Nc3ccc(N4CCN(CCO)CC4)cc3)nc3ccsc23)c1	≤ 50
≤ 50	C=CC(=O)Nc1cccc(Oc2nc(Nc3ccc(N4CCC(n5ccnc5)C4)cc3)nc3ccsc23)c1 (stereo unspecified)	≤ 50
≤ 50	C=CC(=O)Nc1cccc(Oc2nc(Nc3ccc(OC4CCN(C)CC4)c(F)c3)nc3ccsc23)c1	≤ 50
50 to 100	C=CC(=O)Nc1cccc(Nc2nc(Nc3ccc(CCN(C)C)cc3)nc3ccsc23)c1	≤ 50
≤ 50	C=CC(=O)Nc1cccc(Oc2nc(Nc3ccc(N4CCC(N(C)C)CC4)cc3)nc3ccsc23)c1	≤ 50
